ChEMBL document CHEMBL1146954, “Design and synthesis of 7H-pyrrolo[2,3-d]pyrimidines as focal adhesion kinase inhibitors. Part 1” (Bioorg Med Chem Lett, 2006)

Target: Focal adhesion kinase 1 (Homo sapiens, UniProt Q05397)
Experiment: Inhibitory activity against FAK

Focal adhesion kinase 1, sequence (Q05397 whole entry): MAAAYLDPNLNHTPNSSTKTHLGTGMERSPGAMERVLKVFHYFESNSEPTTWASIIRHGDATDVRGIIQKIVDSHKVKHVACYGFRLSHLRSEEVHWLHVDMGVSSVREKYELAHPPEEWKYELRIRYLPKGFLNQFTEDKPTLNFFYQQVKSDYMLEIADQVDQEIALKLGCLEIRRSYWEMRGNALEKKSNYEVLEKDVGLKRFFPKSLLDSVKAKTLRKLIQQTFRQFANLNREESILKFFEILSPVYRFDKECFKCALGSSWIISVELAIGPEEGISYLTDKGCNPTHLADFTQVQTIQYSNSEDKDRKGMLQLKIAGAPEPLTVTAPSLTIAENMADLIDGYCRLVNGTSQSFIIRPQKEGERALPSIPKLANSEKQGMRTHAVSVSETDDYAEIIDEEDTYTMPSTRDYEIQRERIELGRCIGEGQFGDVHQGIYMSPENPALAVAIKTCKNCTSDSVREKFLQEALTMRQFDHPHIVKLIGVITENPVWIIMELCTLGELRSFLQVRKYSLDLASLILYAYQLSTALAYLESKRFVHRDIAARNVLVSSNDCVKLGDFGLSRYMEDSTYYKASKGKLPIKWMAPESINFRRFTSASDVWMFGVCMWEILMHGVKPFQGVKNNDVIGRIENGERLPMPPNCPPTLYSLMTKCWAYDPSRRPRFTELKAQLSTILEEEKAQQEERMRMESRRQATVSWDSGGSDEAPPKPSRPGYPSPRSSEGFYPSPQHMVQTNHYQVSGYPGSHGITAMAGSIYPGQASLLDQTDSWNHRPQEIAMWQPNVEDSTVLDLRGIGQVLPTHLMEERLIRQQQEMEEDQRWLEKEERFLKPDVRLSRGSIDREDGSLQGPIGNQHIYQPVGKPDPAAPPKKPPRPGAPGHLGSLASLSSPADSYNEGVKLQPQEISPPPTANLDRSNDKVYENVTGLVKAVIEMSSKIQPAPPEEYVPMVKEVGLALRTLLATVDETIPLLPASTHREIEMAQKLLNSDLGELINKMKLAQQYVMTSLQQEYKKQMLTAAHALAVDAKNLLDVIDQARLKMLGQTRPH

Compound | IC50
COc1cc(Nc2ncc3ccn(-c4ccccn4)c3n2)cc(OC)c1OC | 200 nM
COc1cc(Nc2ncc(Br)c(Nc3ccccn3)n2)cc(OC)c1OC | 100 nM
